Measurements from patent publication US12129265B2, “Therapeutic agents and uses thereof” (Ankh Life Sciences Limited, priority 2020, dated 2024).

Experiments:
A2780 cells = assay: CellTiter-Glo in vitro cell proliferation assay, Example 8; format: cell-based, Human; details: Homo sapiens; A2780, Ovarian, 72 hours; read-out: Mean IC50
Outline: (§1)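 Cells plated in 384-well plates, incubated 24 h at 37 °C, then dosed with compound in DMSO at 0.0075–100 μM (DMSO-only controls) for 72 h. Proliferation read as luminescence after 60 min room-temperature incubation with 1:1 water:CellTiter-Glo.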

A2780CP cells = assay: as above; format: cell-based, Human; details: Homo sapiens, A2780C/P, Ovarian, 72 hours, read-out: Mean IC50
Outline: as §1

A498 cells = assay: as above; format: cell-based, Human; details: Homo sapiens; A498, Renal, 72 hours; read-out: Mean IC50
Outline: as §1

AN3CA cells = assay: as above; format: cell-based, Human; details: Homo sapiens, AN3-CA, Endometrial, 72 hours, read-out: Mean IC50
Outline: as §1

ASPC-1 cells = assay: as above; format: cell-based, Human; details: Homo sapiens, ASPC1; ASPC-1, Pancreatic, 72 hours; read-out: Mean IC50
Outline: as §1

BxPC-3 cells = assay: as above; format: cell-based, Human; details: Homo sapiens; BxPC-3, Pancreatic, 72 hours; read-out: Mean IC50
Outline: as §1

FaDu cells = assay: as above; format: cell-based, Human; details: Homo sapiens, Squamous, 72 hours, read-out: Mean IC50
Outline: as §1

H1650 (EGFR mut) cells = assay: as above; format: cell-based, Human; details: Homo sapiens, NCI-H1650, Non Small Cell Lung, 72 hours, read-out: Mean IC50
Outline: as §1

H1975 (EGFR mut) cells = assay: as above; format: cell-based, Human; details: Homo sapiens, NCI-H1975, Non Small Cell Lung, 72 hours, read-out: Mean IC50
Outline: as §1

H929 cells = assay: as above; format: cell-based, Human; details: NCI-H929; H929, Human Myeloma, 72 hours; read-out: Mean IC50
Outline: as §1

JIM1 cells = assay: as above; format: cell-based, Human; details: JIM1, Human Myeloma, 72 hours; read-out: Mean IC50
Outline: as §1

KHM-1B cells = assay: as above; format: cell-based, Human; details: Human Myeloma, 72 hours, read-out: Mean IC50
Outline: as §1

KMM-1 cells = assay: as above; format: cell-based, Human; details: KMM-1, Human Myeloma, 72 hours; read-out: Mean IC50
Outline: as §1

KMS-11 cells = assay: as above; format: cell-based, Human; details: KMS-11, Human Myeloma, 72 hours; read-out: Mean IC50
Outline: as §1

KMS-27 cells = assay: as above; format: cell-based, Human; details: KMS-27, Human Myeloma, 72 hours; read-out: Mean IC50
Outline: as §1

KMS-34 cells = assay: as above; format: cell-based, Human; details: KMS-34, Human Myeloma, 72 hours; read-out: Mean IC50
Outline: as §1

L363 cells = assay: as above; format: cell-based, Human; details: L-363; L363, Human Myeloma, 72 hours; read-out: Mean IC50
Outline: as §1

MDA-MB-231 cells = assay: as above; format: cell-based, Human; details: Homo sapiens; MDA-MB-231, Triple Negative Breast, 72 hours; read-out: Mean IC50
Outline: as §1

MOLP-8 cells = assay: as above; format: cell-based, Human; details: MOLP-8, Human Myeloma, 72 hours; read-out: Mean IC50
Outline: as §1

OCI-LY3 cells = assay: as above; format: cell-based, Human; details: Homo sapiens; OCI-LY3, Diffuse Large B-Cell Lymphoma, 72 hours; read-out: Mean IC50
Outline: as §1

N87 cells = assay: as above; format: cell-based; details: Homo sapiens; N87, Gastric, 72 hours; read-out: Mean IC50
Procedure: (§2) In this Example, in vitro cell proliferation assays were performed using: (1) Human Myeloma tumor cell lines; (2) Human Lymphoma tumor cell lines; (3) Solid Human tumor cell lines; and (4) Parental, Lenalidomide resistant and Bortezomib resistant Jeko-1 Mantle cell Lymphoma tumor cell lines. The compounds tested were three diharmaline compounds, namely the 518B562 (or simply 562), 560, and 561 compounds. In addition, a monoharmaline product designated as 518F014 was also tested. This monoharmaline product had the following structure:
(§3) Each proliferation assay was carried out as follows. The test cells were plated in growth media using a 384-well microtiter plate at 50 μL volume. The cells were incubated for 24 hours at 37° C. in a humidified incubator. After 24 hours of incubation, the test compounds were added to the test wells in DSMO solvent, at concentrations ranging from 0.0075-100 μM. Control wells received equal volumes of DSMO, without compound. Following drugging, the cells were incubated for 72 hours at 37° C. in a humidified incubator. After this exposure, 100 μL of a 1:1 mixture of sterile water and CellTiter-Glo® reagent (Promega) was added to each well. The plates were then incubated for 60 minutes at room temperature, followed by recording the luminescence value of each well using a luminometer as a measure of cell proliferation.

RXF-393 cells = assay: as above; format: cell-based; details: Homo sapiens; RXF-393, Renal, 72 hours; read-out: Mean IC50
Procedure: as §2, §3

SU-DHL-4 cells = assay: as above; format: cell-based; details: Homo sapiens; SU-DHL-4, Diffuse Large B-Cell Lymphoma, 72 hours; read-out: Mean IC50
Procedure: as §2, §3

SU-DHL-6 cells = assay: as above; format: cell-based; details: Homo sapiens; SU-DHL-6, Diffuse Large B-Cell Lymphoma, 72 hours; read-out: Mean IC50
Procedure: as §2, §3

[1] = system: Human Myeloma, Human Lymphoma, Solid Human tumor and Jeko-1 tumor cell lines; assay: CellTiter-Glo in vitro cell proliferation assay, Example 8, whole panel; format: cell-based; details: 72 hours; cell lines of Table 14
Procedure: as §2, §3

Compound	IC50 (A2780 cells)	IC50 (A2780CP cells)	IC50 (A498 cells)	IC50 (AN3CA cells)	IC50 (ASPC-1 cells)	IC50 (BxPC-3 cells)	IC50 (FaDu cells)	IC50 (H1650 (EGFR mut) cells)	IC50 (H1975 (EGFR mut) cells)	IC50 (H929 cells)	IC50 (JIM1 cells)	IC50 (KHM-1B cells)	IC50 (KMM-1 cells)	IC50 (KMS-11 cells)	IC50 (KMS-27 cells)	IC50 (KMS-34 cells)	IC50 (L363 cells)	IC50 (MDA-MB-231 cells)	IC50 (MOLP-8 cells)	IC50 (OCI-LY3 cells)	other results
COc1ccc2c3c([nH]c2c1)C(CC(CC1=NCCc2c1[nH]c1cc(OC)ccc21)c1ccccc1)=NCC3 [compound 560]	2.03 µM	4.4 µM	3.34 µM	2.71 µM	3.62 µM	2.62 µM	2.05 µM	2.95 µM	4.27 µM	4.3 µM	5.17 µM	7.58 µM	5.3 µM	4.95 µM	3.94 µM	6.67 µM	5.27 µM	3.89 µM	2.89 µM	2.87 µM	IC50 (N87 cells): 3.71 µM; IC50 (RXF-393 cells): 5.4 µM; IC50 (SU-DHL-4 cells): 3.68 µM; IC50 (SU-DHL-6 cells): 3.52 µM; IC50 values compared with the monoharmaline 518F014 compound [1]: significantly lower IC50 values
COc1ccc2c3c([nH]c2c1)C(CC(CC1=NCCc2c1[nH]c1cc(OC)ccc21)c1ccc(O)c(OC)c1)=NCC3 [compound 562]	1.14 µM	2.28 µM	1.76 µM	1.79 µM	2.15 µM	1.6 µM	1.98 µM	2.3 µM	1.84 µM	4.5 µM	3.95 µM	3.37 µM	4.04 µM	4.93 µM	2.1 µM	5.45 µM	2 µM	1.62 µM	1.38 µM	2.38 µM	IC50 (N87 cells): 1.85 µM; IC50 (RXF-393 cells): 1.79 µM; IC50 (SU-DHL-4 cells): 1.81 µM; IC50 (SU-DHL-6 cells): 0.819 µM; IC50 values compared with the monoharmaline 518F014 compound [1]: significantly lower IC50 values
